{"source": "patent US20230085307A1", "about": "“PYRIDAZINONE COMPOUND AND HERBICIDE” (NISSAN CHEMICAL CORPORATION, priority 2019, published 2023)", "key": {"barnyard grass [1]": {"tested_on": "barnyard grass", "test": "Test Example 5: herbicidal effect by foliage application, plastic box (Table 20, symbol H)", "assay_type": "in vivo, barnyard grass (Echinochloa crus-galli)", "settings": "320 g/ha, foliage application after 14-day growth, evaluated three weeks after application", "outline": "(§1)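 Post-emergence foliar test in sterilized diluvial soil. Compound applied as water-diluted emulsion at a predetermined rate to 14-day-old plants; evaluation at three weeks.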"}, "wild oat [2]": {"tested_on": "wild oat", "test": "Test Example 5: herbicidal effect by foliage application, plastic box (Table 20, symbol I)", "assay_type": "in vivo, wild oat (Avena fatua)", "settings": "320 g/ha, foliage application after 14-day growth, evaluated three weeks after application", "outline": "as §1"}, "rice flat sedge": {"tested_on": "rice flat sedge", "test": "Test Example 3: herbicidal effect by foliage application, Wagner pot (Table 18, symbol E)", "assay_type": "in vivo, rice flat sedge (Cyperus iria)", "settings": "320 g/ha", "outline": "(§2)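 Plants were sown in alluvial soil held under 0.1–0.5 cm standing water and grown 14 days in a greenhouse at 25–30 °C. An emulsifiable formulation, water-diluted to the set dose, was then sprayed onto the foliage, and effects were scored three weeks later using previously defined criteria.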"}, "Italian ryegrass [3]": {"tested_on": "Italian ryegrass", "test": "Test Example 4: herbicidal effect by soil treatment (Table 19, symbol K)", "assay_type": "in vivo, Italian ryegrass (Lolium multiflorum)", "settings": "amount of applied herbicide 320 g/ha", "outline": "(§3)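 Scoring uses the grading scale of an earlier test, three weeks post-application. Treatment consists of spraying a diluted emulsion formulation across the surface of sterilized diluvial soil in which seeds are buried near 1.5 cm deep; boxes are kept in a greenhouse between 25° C. and 30° C.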"}, "southern crabgrass [4]": {"tested_on": "southern crabgrass", "test": "Test Example 5: herbicidal effect by foliage application, plastic box (Table 20, symbol F)", "assay_type": "in vivo, southern crabgrass (Digitaria ciliaris)", "settings": "320 g/ha, foliage application after 14-day growth, evaluated three weeks after application", "outline": "as §1"}, "green foxtail [5]": {"tested_on": "green foxtail", "test": "Test Example 4: herbicidal effect by soil treatment (Table 19, symbol G)", "assay_type": "in vivo, green foxtail (Setaria viridis)", "settings": "amount of applied herbicide 320 g/ha", "outline": "as §3"}, "Italian ryegrass [6]": {"tested_on": "Italian ryegrass", "test": "Test Example 5: herbicidal effect by foliage application, plastic box (Table 20, symbol K)", "assay_type": "in vivo, Italian ryegrass (Lolium multiflorum)", "settings": "320 g/ha, foliage application after 14-day growth, evaluated three weeks after application", "outline": "as §1"}, "blackgrass [7]": {"tested_on": "blackgrass", "test": "Test Example 5: herbicidal effect by foliage application, plastic box (Table 20, symbol J)", "assay_type": "in vivo, blackgrass (Alopecurus myosuroides)", "settings": "320 g/ha, foliage application after 14-day growth, evaluated three weeks after application", "outline": "as §1"}, "green foxtail [8]": {"tested_on": "green foxtail", "test": "Test Example 5: herbicidal effect by foliage application, plastic box (Table 20, symbol G)", "assay_type": "in vivo, green foxtail (Setaria viridis)", "settings": "320 g/ha, foliage application after 14-day growth, evaluated three weeks after application", "outline": "as §1"}, "velvetleaf [9]": {"tested_on": "velvetleaf", "test": "Test Example 4: herbicidal effect by soil treatment (Table 19, symbol M)", "assay_type": "in vivo, velvetleaf (Abutilon theophrasti)", "settings": "amount of applied herbicide 320 g/ha", "outline": "as §3"}, "velvetleaf [10]": {"tested_on": "velvetleaf", "test": "Test Example 5: herbicidal effect by foliage application, plastic box (Table 20, symbol M)", "assay_type": "in vivo, velvetleaf (Abutilon theophrasti)", "settings": "320 g/ha, foliage application after 14-day growth, evaluated three weeks after application", "outline": "as §1"}, "redroot pigweed [11]": {"tested_on": "redroot pigweed", "test": "Test Example 5: herbicidal effect by foliage application, plastic box (Table 20, symbol N)", "assay_type": "in vivo, redroot pigweed (Amaranthus retroflexus)", "settings": "320 g/ha, foliage application after 14-day growth, evaluated three weeks after application", "outline": "as §1"}, "southern crabgrass [12]": {"tested_on": "southern crabgrass", "test": "Test Example 4: herbicidal effect by soil treatment (Table 19, symbol F)", "assay_type": "in vivo, southern crabgrass (Digitaria ciliaris)", "settings": "amount of applied herbicide 320 g/ha", "outline": "as §3"}, "windgrass [13]": {"tested_on": "windgrass", "test": "Test Example 5: herbicidal effect by foliage application, plastic box (Table 20, symbol L)", "assay_type": "in vivo, windgrass (Apera spica-venti)", "settings": "320 g/ha, foliage application after 14-day growth, evaluated three weeks after application", "outline": "as §1"}, "lambsquarters [14]": {"tested_on": "lambsquarters", "test": "Test Example 4: herbicidal effect by soil treatment (Table 19, symbol O)", "assay_type": "in vivo, lambsquarters (Chenopodium album)", "settings": "amount of applied herbicide 320 g/ha", "outline": "as §3"}, "blackgrass [15]": {"tested_on": "blackgrass", "test": "Test Example 4: herbicidal effect by soil treatment (Table 19, symbol J)", "assay_type": "in vivo, blackgrass (Alopecurus myosuroides)", "settings": "amount of applied herbicide 320 g/ha", "outline": "as §3"}, "persian speedwell [16]": {"tested_on": "persian speedwell", "test": "Test Example 4: herbicidal effect by soil treatment (Table 19, symbol R)", "assay_type": "in vivo, Persian speedwell (Veronica persica)", "settings": "amount of applied herbicide 320 g/ha", "outline": "as §3"}, "barnyard grass [17]": {"tested_on": "barnyard grass", "test": "Test Example 4: herbicidal effect by soil treatment (Table 19, symbol H)", "assay_type": "in vivo, barnyard grass (Echinochloa crus-galli)", "settings": "amount of applied herbicide 320 g/ha", "outline": "as §3"}, "lambsquarters [18]": {"tested_on": "lambsquarters", "test": "Test Example 5: herbicidal effect by foliage application, plastic box (Table 20, symbol O)", "assay_type": "in vivo, lambsquarters (Chenopodium album)", "settings": "320 g/ha, foliage application after 14-day growth, evaluated three weeks after application", "outline": "as §1"}, "windgrass [19]": {"tested_on": "windgrass", "test": "Test Example 4: herbicidal effect by soil treatment (Table 19, symbol L)", "assay_type": "in vivo, windgrass (Apera spica-venti)", "settings": "amount of applied herbicide 320 g/ha", "outline": "as §3"}, "Chinese sprangletop": {"tested_on": "Chinese sprangletop", "test": "Test Example 3: herbicidal effect by foliage application, Wagner pot (Table 18, symbol D)", "assay_type": "in vivo, chinese sprangletop (Leptochloa chinensis)", "settings": "320 g/ha", "outline": "as §2"}, "false cleavers": {"tested_on": "false cleavers", "test": "Test Example 4: herbicidal effect by soil treatment (Table 19, symbol Q)", "assay_type": "in vivo, false cleavers (Galium spurium)", "settings": "amount of applied herbicide 320 g/ha", "outline": "as §3"}, "chickweed [20]": {"tested_on": "chickweed", "test": "Test Example 4: herbicidal effect by soil treatment (Table 19, symbol P)", "assay_type": "in vivo, common chickweed (Stellaria media)", "settings": "amount of applied herbicide 320 g/ha", "outline": "as §3"}, "redroot pigweed [21]": {"tested_on": "redroot pigweed", "test": "Test Example 4: herbicidal effect by soil treatment (Table 19, symbol N)", "assay_type": "in vivo, redroot pigweed (Amaranthus retroflexus)", "settings": "amount of applied herbicide 320 g/ha", "outline": "as §3"}, "wild oat [22]": {"tested_on": "wild oat", "test": "Test Example 4: herbicidal effect by soil treatment (Table 19, symbol I)", "assay_type": "in vivo, wild oat (Avena fatua)", "settings": "amount of applied herbicide 320 g/ha", "outline": "as §3"}, "persian speedwell [23]": {"tested_on": "persian speedwell", "test": "Test Example 5: herbicidal effect by foliage application, plastic box (Table 20, symbol R)", "assay_type": "in vivo, Persian speedwell (Veronica persica)", "settings": "320 g/ha, foliage application after 14-day growth, evaluated three weeks after application", "outline": "as §1"}, "chickweed [24]": {"tested_on": "chickweed", "test": "Test Example 5: herbicidal effect by foliage application, plastic box (Table 20, symbol P)", "assay_type": "in vivo, common chickweed (Stellaria media)", "settings": "320 g/ha, foliage application after 14-day growth, evaluated three weeks after application", "outline": "as §1"}, "barnyard grass [25]": {"tested_on": "barnyard grass", "test": "Test Example 3: herbicidal effect by foliage application, Wagner pot (Table 18, symbol H)", "assay_type": "in vivo, barnyard grass (Echinochloa crus-galli)", "settings": "320 g/ha", "outline": "as §2"}}}
{"smiles": "Cc1nn(C)c(=O)c(-c2c(-c3ccc(C#N)cc3)sc3c(F)cccc23)c1O", "note": "[4-052]", "values": [{"measurement": "herbicidal effect on H: barnyard grass (evaluation grade 0-5)", "setting": "barnyard grass [1]", "value": "5 (Herbicidal rate of 90% or more (almost completely withered))"}, {"measurement": "herbicidal effect on I: wild oat (evaluation grade 0-5)", "setting": "wild oat [2]", "value": "0 (Herbicidal rate of 5% or less (almost no effect))"}, {"measurement": "herbicidal effect on rice flat sedge (E)", "setting": "rice flat sedge", "value": "4 (Herbicidal rate of 70% or more and less than 90%)"}, {"measurement": "Herbicidal effect by soil treatment, K: Italian ryegrass", "setting": "Italian ryegrass [3]", "value": "0 (Herbicidal rate of 5% or less (almost no effect))"}, {"measurement": "herbicidal effect on F: southern crabgrass (evaluation grade 0-5)", "setting": "southern crabgrass [4]", "value": "0 (Herbicidal rate of 5% or less (almost no effect))"}, {"measurement": "Herbicidal effect by soil treatment, G: green foxtail", "setting": "green foxtail [5]", "value": "0 (Herbicidal rate of 5% or less (almost no effect))"}, {"measurement": "herbicidal effect on K: Italian ryegrass (evaluation grade 0-5)", "setting": "Italian ryegrass [6]", "value": "3 (Herbicidal rate of 40% or more and less than 70%)"}, {"measurement": "herbicidal effect on J: blackgrass (evaluation grade 0-5)", "setting": "blackgrass [7]", "value": "0 (Herbicidal rate of 5% or less (almost no effect))"}, {"measurement": "herbicidal effect on G: green foxtail (evaluation grade 0-5)", "setting": "green foxtail [8]", "value": "5 (Herbicidal rate of 90% or more (almost completely withered))"}, {"measurement": "Herbicidal effect by soil treatment, M: velvetleaf", "setting": "velvetleaf [9]", "value": "1 (Herbicidal rate of 5% or more and less than 20%)"}, {"measurement": "herbicidal effect on M: velvetleaf (evaluation grade 0-5)", "setting": "velvetleaf [10]", "value": "5 (Herbicidal rate of 90% or more (almost completely withered))"}, {"measurement": "herbicidal effect on N: redroot pigweed (evaluation grade 0-5)", "setting": "redroot pigweed [11]", "value": "5 (Herbicidal rate of 90% or more (almost completely withered))"}, {"measurement": "Herbicidal effect by soil treatment, F: southern crabgrass", "setting": "southern crabgrass [12]", "value": "0 (Herbicidal rate of 5% or less (almost no effect))"}, {"measurement": "herbicidal effect on L: windgrass (evaluation grade 0-5)", "setting": "windgrass [13]", "value": "0 (Herbicidal rate of 5% or less (almost no effect))"}, {"measurement": "Herbicidal effect by soil treatment, O: lambsquarters", "setting": "lambsquarters [14]", "value": "2 (Herbicidal rate of 20% or more and less than 40%)"}, {"measurement": "Herbicidal effect by soil treatment, J: blackgrass", "setting": "blackgrass [15]", "value": "0 (Herbicidal rate of 5% or less (almost no effect))"}, {"measurement": "Herbicidal effect by soil treatment, R: persian speedwell", "setting": "persian speedwell [16]", "value": "4 (Herbicidal rate of 70% or more and less than 90%)"}, {"measurement": "Herbicidal effect by soil treatment, H: barnyard grass", "setting": "barnyard grass [17]", "value": "0 (Herbicidal rate of 5% or less (almost no effect))"}, {"measurement": "herbicidal effect on O: lambsquarters (evaluation grade 0-5)", "setting": "lambsquarters [18]", "value": "4 (Herbicidal rate of 70% or more and less than 90%)"}, {"measurement": "Herbicidal effect by soil treatment, L: windgrass", "setting": "windgrass [19]", "value": "0 (Herbicidal rate of 5% or less (almost no effect))"}, {"measurement": "herbicidal effect on Chinese sprangletop (D)", "setting": "Chinese sprangletop", "value": "3 (Herbicidal rate of 40% or more and less than 70%)"}, {"measurement": "Herbicidal effect by soil treatment, Q: false cleavers", "setting": "false cleavers", "value": "0 (Herbicidal rate of 5% or less (almost no effect))"}, {"measurement": "Herbicidal effect by soil treatment, P: chickweed", "setting": "chickweed [20]", "value": "3 (Herbicidal rate of 40% or more and less than 70%)"}, {"measurement": "Herbicidal effect by soil treatment, N: redroot pigweed", "setting": "redroot pigweed [21]", "value": "4 (Herbicidal rate of 70% or more and less than 90%)"}, {"measurement": "Herbicidal effect by soil treatment, I: wild oat", "setting": "wild oat [22]", "value": "0 (Herbicidal rate of 5% or less (almost no effect))"}, {"measurement": "herbicidal effect on R: persian speedwell (evaluation grade 0-5)", "setting": "persian speedwell [23]", "value": "5 (Herbicidal rate of 90% or more (almost completely withered))"}, {"measurement": "herbicidal effect on P: chickweed (evaluation grade 0-5)", "setting": "chickweed [24]", "value": "5 (Herbicidal rate of 90% or more (almost completely withered))"}, {"measurement": "herbicidal effect on barnyard grass (H)", "setting": "barnyard grass [25]", "value": "5 (Herbicidal rate of 90% or more (almost completely withered))"}]}
